Reference: patent US20170226121A1, “MODULATORS OF VIRUS ASSEMBLY AS ANTIVIRAL AGENTS” (Indiana University Research and Technology Corporation, priority 2011, published 2017)
“And” between values parts separate entries of the source, which are not always exact repeats. Equal entries are not always repeated. Where two headings read alike, the source gives them in different places.

Key:
[1] = molecular target: labeled HBV core protein dimer, Cp150Bo (Hepatitis B virus genotype D subtype adw, UniProt P03147, C107A/C48A/C61A/R150C); experiment: Fluorescence quenching assay of HBV assembly; format: biochemical; conditions: single time point 24 hr after assembly initiated with NaCl, about 30±15% assembly without stimulation
[2] = tested on: HBV production in HepAD38 (AD38) cells; experiment: Antiviral activity, inducible HBV expression system, AD38 cells; format: cell-based, hepatitis B virus; conditions: for EC90: suppression of HBV production by 90%
Protocol: Antiviral activity was measured using an inducible HBV expression system, AD38 cells. […] Initial experiments tested the activity of 10 μM HAP (percentage viral assembly at 24 hour). For active molecules, effective concentrations were determined for suppression of HBV production by 50% and by 90%; this value is reported in μM.

[3] = tested on: HepG2; experiment: in vitro
Protocol: (§1) Antiviral activity was measured using an inducible HBV expression system, AD38 cells. (Ladner, S. K. et al., Antimicrob Agents Chemother 41, 1715-20 (1997)). Initial experiments tested the activity of 10 μM HAP (percentage viral assembly at 24 hour). For active molecules, effective concentrations were determined for suppression of HBV production by 50% and by 90%; this value is reported in μM. Compound toxicity was tested in the parent cell line, HepG2. […] All of these experiments were performed blind, in the laboratory of Raymond Schinazi (Emory University).

[4] = in vitro; conditions: human
Protocol: as §1

[5] = suppression of HBV production by 50%, read-out: HepAD38 EC50
[6] = value in parentheses in CC50 cell

Chain of labeled HBV core protein dimer, Cp150Bo (P03147 1-150 C48A/C61A/C107A/R150C): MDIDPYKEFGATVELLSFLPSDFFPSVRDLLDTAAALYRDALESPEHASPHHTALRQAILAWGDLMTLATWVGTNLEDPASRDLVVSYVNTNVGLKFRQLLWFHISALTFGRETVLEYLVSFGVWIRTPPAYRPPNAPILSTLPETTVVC

Row | Compound | Assembly [1] | also measured
1 | COC(=O)C1=C(C(C)C)NC(c2ccccn2)=NC1c1ccc(F)cc1Cl (stereo not shown) [Compound B-24] | 70% | 
2 | COC(=O)C1=C(C)NC(c2ccccc2)=NC1c1ccc(F)cc1Cl (stereo not shown) [Compound B-7] | 96% | 
3 | COC(=O)C1=C(CN2CCN(CC3CCCCC3)CC2)NC(c2ccccn2)=NC1c1ccc(F)cc1Cl (stereo not shown) [Compound B-56] | 15% | 
4 | CCOC(=O)C1=C(CNCC23CC4CC(CC(C4)C2)C3)NC(c2ccccn2)=NC1c1ccc(F)cc1Cl (stereo not shown) [Compound B-58] | 42% | 
5 | COC(=O)C1=C(CN2CCN(CCOCCOCCN=[N+]=[N-])CC2)NC(c2ccccn2)=NC1c1ccc(F)cc1Cl (stereo not shown) [Compound B74] | 21% | 
6 | COC(=O)C1=C(CN2CCNCC2)NC(c2ccccn2)=NC1c1ccc(F)cc1Cl (stereo not shown) [Compound B-36] | 92% | 
7 | COC(=O)C1=C(CN2CCN(Cc3ccc(Br)cc3)CC2)NC(c2ccccn2)=NC1c1ccc(F)cc1Cl (stereo not shown) [Compound B-54] | 21% | 
8 | C#CCNC(=O)CCCC(=O)N1CCN(CC2=C(C(=O)OC)C(c3ccc(F)cc3Cl)N=C(c3ccccn3)N2)CC1 (stereo not shown) [Compound B71] | 133% | 
9 | COC(=O)C1=C(CN2CCNC(=O)CC2)NC(c2ccccn2)=NC1c1ccc(F)cc1Cl (stereo not shown) [Compound B-120] | 96% | % Inhibition ([2]; compound at 10 μM): 99.87%; Δ-Ct-HBV ([2]; compound at 10 μM): 9.65; EC50 [2, 5]: 300 nM; EC90 [2]: 900 nM; CC50 [3]: 32000 nM; (YI) ratio of CC50/EC50, therapeutic index [3, 6]: 99
10 | CCOC(=O)C1=C(c2ccccn2)NC(c2ccccn2)=NC1c1ccc(F)cc1Cl (stereo not shown) [Compound B-23] | 47% | 
11 | C#CCOCC1(COCC#C)COC2(CCN(CC3=C(C(=O)OC)C(c4ccc(F)cc4Cl)N=C(c4ccccn4)N3)CC2)OC1 (stereo not shown) [Compound B67] | 84% | 
12 | COC(=O)C1=C(CN2CCN(CCOCCN=[N+]=[N-])CC2)NC(c2ccccn2)=NC1c1ccc(F)cc1Cl (stereo not shown) [Compound B72] | 29% | 
13 | COC(=O)C1=C(CN2CCOCC2)NC(c2ccncc2)=NC1c1ccc(F)cc1Cl (stereo not shown) [Compound B76] | 36% | 
14 | CC1=C(C(=O)OCCN=[N+]=[N-])C(c2ccc(F)cc2Cl)N=C(c2ccncc2)N1 (stereo not shown) [Compound B-2] | 51% | 
15 | COC(=O)C1=C(C)NC(c2ccc(Br)cn2)=NC1c1ccc(F)cc1Cl (stereo not shown) [Compound B-17] | 87% | 
16 | COC(=O)C1=C(CCl)NC(c2ccccn2)=NC1c1ccc(F)cc1Cl (stereo not shown) [HAP2, reference compound] | 99% | 
17 | COC(=O)C1=C(C)NC(c2ccccn2)=NC1c1ccc(F)cc1Cl (stereo not shown) [Compound B-6] | 95% | 
18 | CC1=C(C(=O)NCc2cn(CCN3C(=O)c4ccccc4C3=O)nn2)C(c2ccc(F)cc2Cl)N=C(c2ccncc2)N1 (stereo not shown) [Compound B-13] | 55% | 
19 | CCOC(=O)C1=C(CNC23CC4CC(CC(C4)C2)C3)NC(c2ccccn2)=NC1c1ccc(F)cc1Cl (stereo not shown) [Compound B-57] | 49% | 
20 | C#CCOC(=O)C1=C(C)NC(c2ccccn2)=NC1c1ccc(F)cc1Cl (stereo not shown) [Compound B-12] | 83% | 
21 | COC(=O)C1=C(CN2CCC3=NN(C)C(=O)C3C2)NC(c2ccccn2)=NC1c1ccc(F)cc1Cl (stereo not shown) [Compound B69] | 54% | 

Row | Compound | Assembly [1] | also measured
22 | COC(=O)C1=C(C)NC(c2ccncc2)=NC1c1ccc(F)cc1Cl (stereo not shown) [Compound B-1] | 78% | 
23 | C#CCCCCN1CCN(CC2=C(C(=O)OC)C(c3ccc(F)cc3Cl)N=C(c3ccccn3)N2)CC1 (stereo not shown) [Compound B-073] | 69% | % Inhibition ([2]; compound at 10 μM): 64.44%; Δ-Ct-HBV ([2]; compound at 10 μM): 1.5; EC50 [2, 5]: 7600 nM; EC90 [2]: > 10000 nM; CC50 [3]: 3700 nM; (YI) ratio of CC50/EC50, therapeutic index [3, 6]: 0.5
24 | COC(=O)C1=C(CN2CCOCC2)NC(c2ccccn2)=NC1c1ccc(F)cc1Cl (stereo not shown) [Compound B-061] |  | Assembly ([1]; listed as B61): 99%; Assembly ([1]; listed as B-61): 51% and 80%; EC50 ([2]; given in place of % inhibition at 10 μM, read-out: EC50 (printed in % Inhibition column)): 550 nM; EC50 [2, 5]: 490 nM; EC90 [2]: 1000 nM; CC50 [3]: > 100000 nM; (YI) ratio of CC50/EC50, therapeutic index [3, 6]: > 200
25 | COC(=O)C1=C(C)NC(c2nc3ccc(OC)cc3s2)=NC1c1ccc(F)cc1Cl (stereo not shown) [Compound B-4] | 56% | 
26 | COC(=O)C1=C(CN2CCCCC2)NC(c2ccccn2)=NC1c1ccc(F)cc1Cl (stereo not shown) [Compound B-60] | 60% | 
27 | CC1=C(C(=O)OCCC2CCC(CNS(=O)(=O)c3cccc4c(N(C)C)cccc34)C2)C(c2ccc(F)cc2Cl)N=C(c2ccncc2)N1 (stereo not shown) [Compound B-5] | 54% | 
28 | COC(=O)C1=C(C)NC(=S)NC1c1ccc(F)cc1Cl (stereo not shown) [Compound B77] | 15% | 
29 | C#CCNC(=O)C1=C(C)NC(c2ccncc2)=NC1c1ccc(F)cc1Cl (stereo not shown) [Compound B-3] | 48% | 
30 | COC(=O)C1=C(CNCCOCCOCCN=[N+]=[N-])NC(c2ccccn2)=NC1c1ccc(F)cc1Cl (stereo not shown) [Compound B68] | 49% | 
31 | COC(=O)C1=C(CN2CCN(C(=O)CCCC(=O)NCCCN=[N+]=[N-])CC2)NC(c2ccccn2)=NC1c1ccc(F)cc1Cl (stereo not shown) [Compound B-070] | 123% | % Inhibition ([2]; compound at 10 μM): 99.88%; Δ-Ct-HBV ([2]; compound at 10 μM): 9.77; EC50 [2, 5]: 2300 nM; EC90 [2]: 5900 nM; CC50 [3]: 8400 nM; (YI) ratio of CC50/EC50, therapeutic index [3, 6]: 3.7
32 | COC(=O)C1=C(CCl)NC(c2ccccn2)=NC1c1ccc(F)cc1Cl (stereo not shown) [Compound B-25] | 54% | 
33 | COC(=O)C1=C(CN2CCN(Cc3ccccn3)CC2)NC(c2ccccn2)=NC1c1ccc(F)cc1Cl (stereo not shown) [Compound B-55] | 60% | 
34 | COC(=O)C1=C(C)NC(c2ccccn2)=NC1c1ccc(F)cc1Br (stereo not shown) [Compound B-18] | 93% | 
35 | CCOC(=O)C1=C(c2ccccc2)NC(c2ccccn2)=NC1c1ccc(F)cc1Cl (stereo not shown) [Compound B-22] | 77% | 
36 | COC(=O)C1=C(CN2CCCC2)NC(c2ccccn2)=NC1c1ccc(F)cc1Cl (stereo not shown) [Compound B-35] | 87% | 
37 | C#CCCCCC(=O)N1CCN(CC2=C(C(=O)OC)C(c3ccc(F)cc3Cl)N=C(c3ccccn3)N2)CC1 (stereo not shown) [Compound B75] | 134% | 
38 | C#CCNCC1=C(C(=O)OC)C(c2ccc(F)cc2Cl)N=C(c2ccccn2)N1 (stereo not shown) [Compound B-34] | 65% | 
39 | Nc1ccn([C@@H]2CS[C@H](CO)O2)c(=O)n1 [Compound 3TC, lamivudine, reference compound] |  | inhibition at 10 µM ([2]; Hepatitis B virus, HePAD38, compound at 10 μM): 98.6%; EC50 ([2]; Hepatitis B virus, HePAD38, suppression of HBV production by 50%, read-out: HepAD38 EC50): 60 nM; EC90 ([2]; Hepatitis B virus, HePAD38): 200 nM; Δ-Ct-HBV ([2]; compound at 10 μM): 6.17; (YI) ratio of CC50/EC50, therapeutic index [3]: > 1000; CC50 [4]: > 100000 nM
40 | C#CCNC(=O)c1ccc(C2=NC(c3ccc(F)cc3Cl)C(C(=O)OC)=C(C)N2)nc1 (stereo not shown) [Compound B-15] | 48% | 
41 | C#CC(O)(C#C)C1CCN(CC2=C(C(=O)OC)C(c3ccc(F)cc3Cl)N=C(c3ccccn3)N2)CC1 (stereo not shown) [Compound B-59] | 57% | 
